ChEMBL document CHEMBL6127047, “Nitrogen-containing heterocyclic drug products approved by the FDA in 2023: Synthesis and biological activity” (Eur J Med Chem, 2024)
Each block holds one molecule with its values, some of them ahead of it. Where a SMILES comes first, the peptide text is derived from it. [ ]: non-standard residue; d: D form. αMeP = C[C@@]1(C(=O)O)CCCN1

Experiments:
[1] = molecular target: Receptor-type tyrosine-protein kinase FLT3 (Homo sapiens, UniProt P36888, ITD); format: cell-based, MV4-11
clinical [2] = settings: human, in vivo, po
Description: Oral bioavailability in human

clinical [3] = settings: human
[4] = molecular target: T1, Tyrosine-protein kinase BTK (Homo sapiens, UniProt Q06187)
Description: Inhibition of wild type BTK (unknown origin)

[5] = molecular target: T1, Tyrosine-protein kinase BTK; remark: listed apart in the source
Description: Inhibition of wild type BTK (unknown origin) stably transfected in HEK293 cells

clinical [6] = settings: human, in vivo, po; remark: listed apart in the source
clinical [7] = settings: human; remark: listed apart in the source
Neuromedin-K receptor = molecular target: T2, Neuromedin-K receptor (Homo sapiens, UniProt P29371)
T2 sequence (P29371 whole entry): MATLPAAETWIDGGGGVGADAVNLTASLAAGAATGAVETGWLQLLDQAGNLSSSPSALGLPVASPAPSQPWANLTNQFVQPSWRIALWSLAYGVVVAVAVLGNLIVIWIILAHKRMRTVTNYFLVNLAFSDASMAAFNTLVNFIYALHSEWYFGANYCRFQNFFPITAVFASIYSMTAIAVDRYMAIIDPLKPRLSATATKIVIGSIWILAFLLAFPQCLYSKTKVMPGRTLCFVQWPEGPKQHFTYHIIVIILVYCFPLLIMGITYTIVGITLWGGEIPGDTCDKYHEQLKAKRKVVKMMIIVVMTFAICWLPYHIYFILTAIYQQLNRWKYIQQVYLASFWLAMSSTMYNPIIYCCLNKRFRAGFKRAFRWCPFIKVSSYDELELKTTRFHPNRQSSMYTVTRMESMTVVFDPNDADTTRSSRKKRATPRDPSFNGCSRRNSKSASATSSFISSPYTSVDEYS
Description: Binding affinity to human recombinant NK3R assessed as inhibition constant

[8] = Plasma protein binding in human; format: ADME, cell-free; settings: read-out: PPB
[9] = Apparent volume of distribution at steady state in human at 200 mg; format: ADME; settings: read-out: Vdss(app)
[10] = Cmax in human at 200 mg; format: ADME
[11] = Cmax in human; format: ADME
[12] = AUC in human; format: ADME
CYP3A4 = CYP3A4 (Homo sapiens, UniProt P08684); assay: Inhibition of CYP3A4 (unknown origin) at 10 uM relative to control; format: ADME
in vivo = settings: mouse, iv, 3 mg/kg

Sequence of Receptor-type tyrosine-protein kinase FLT3 (P36888 whole entry, looked up, change not shown): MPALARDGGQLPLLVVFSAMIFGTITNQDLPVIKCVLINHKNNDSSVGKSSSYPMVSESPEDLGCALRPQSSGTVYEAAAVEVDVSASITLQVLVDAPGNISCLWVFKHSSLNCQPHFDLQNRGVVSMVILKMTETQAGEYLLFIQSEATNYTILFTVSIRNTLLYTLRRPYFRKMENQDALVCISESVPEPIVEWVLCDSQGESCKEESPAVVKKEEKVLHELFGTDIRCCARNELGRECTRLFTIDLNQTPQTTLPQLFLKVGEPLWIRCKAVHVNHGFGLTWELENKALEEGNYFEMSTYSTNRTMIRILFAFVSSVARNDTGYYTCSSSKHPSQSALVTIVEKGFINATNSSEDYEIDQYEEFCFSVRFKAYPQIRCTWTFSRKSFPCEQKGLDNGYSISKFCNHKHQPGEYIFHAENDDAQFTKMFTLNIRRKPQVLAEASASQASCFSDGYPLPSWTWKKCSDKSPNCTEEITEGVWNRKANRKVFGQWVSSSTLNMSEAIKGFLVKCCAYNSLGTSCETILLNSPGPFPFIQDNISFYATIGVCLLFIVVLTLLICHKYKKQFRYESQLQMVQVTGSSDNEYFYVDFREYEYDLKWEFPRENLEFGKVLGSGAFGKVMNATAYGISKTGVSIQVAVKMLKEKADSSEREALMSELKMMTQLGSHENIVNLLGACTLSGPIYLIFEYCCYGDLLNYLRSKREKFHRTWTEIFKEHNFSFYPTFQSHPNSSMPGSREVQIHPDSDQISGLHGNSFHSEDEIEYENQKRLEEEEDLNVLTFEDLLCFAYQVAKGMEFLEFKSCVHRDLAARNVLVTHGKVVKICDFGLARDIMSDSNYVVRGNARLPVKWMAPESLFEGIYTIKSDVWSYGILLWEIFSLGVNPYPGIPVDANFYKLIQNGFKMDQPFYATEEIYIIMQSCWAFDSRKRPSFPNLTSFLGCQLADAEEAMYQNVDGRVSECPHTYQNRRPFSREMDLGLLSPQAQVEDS
T1 sequence (Q06187 whole entry): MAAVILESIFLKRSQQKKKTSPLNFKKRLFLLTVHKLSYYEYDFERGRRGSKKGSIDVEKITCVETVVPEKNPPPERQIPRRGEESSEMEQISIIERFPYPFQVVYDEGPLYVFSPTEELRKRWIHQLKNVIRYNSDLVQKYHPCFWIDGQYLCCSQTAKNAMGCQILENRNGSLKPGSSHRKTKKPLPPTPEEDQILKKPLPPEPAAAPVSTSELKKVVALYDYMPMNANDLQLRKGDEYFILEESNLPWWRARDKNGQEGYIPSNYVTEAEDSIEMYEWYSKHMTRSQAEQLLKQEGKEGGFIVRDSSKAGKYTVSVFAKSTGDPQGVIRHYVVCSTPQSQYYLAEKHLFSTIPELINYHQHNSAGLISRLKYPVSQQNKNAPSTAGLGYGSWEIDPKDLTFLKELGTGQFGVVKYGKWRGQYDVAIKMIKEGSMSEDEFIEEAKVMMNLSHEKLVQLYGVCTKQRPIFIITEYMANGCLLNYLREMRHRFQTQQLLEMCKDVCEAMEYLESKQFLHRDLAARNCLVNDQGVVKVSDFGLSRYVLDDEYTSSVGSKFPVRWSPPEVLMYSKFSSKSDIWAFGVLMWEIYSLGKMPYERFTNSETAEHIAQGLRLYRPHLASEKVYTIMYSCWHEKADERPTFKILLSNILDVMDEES
Sequence of CYP3A4 (P08684 whole entry): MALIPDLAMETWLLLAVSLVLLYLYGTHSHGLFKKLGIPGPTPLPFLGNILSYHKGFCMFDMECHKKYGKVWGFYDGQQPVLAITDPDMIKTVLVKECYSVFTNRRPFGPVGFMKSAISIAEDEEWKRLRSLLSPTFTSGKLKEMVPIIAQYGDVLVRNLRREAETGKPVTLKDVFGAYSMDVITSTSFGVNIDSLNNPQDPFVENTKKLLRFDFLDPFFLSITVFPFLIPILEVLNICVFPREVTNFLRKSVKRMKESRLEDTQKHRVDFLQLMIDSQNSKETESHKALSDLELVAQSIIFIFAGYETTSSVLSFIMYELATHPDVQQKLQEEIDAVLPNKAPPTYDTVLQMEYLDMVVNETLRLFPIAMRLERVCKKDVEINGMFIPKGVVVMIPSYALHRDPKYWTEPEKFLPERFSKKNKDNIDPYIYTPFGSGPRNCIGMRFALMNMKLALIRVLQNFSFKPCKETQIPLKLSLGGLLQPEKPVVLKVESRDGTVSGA

IC50 [1]: 0.79 nM
Compound: CC(C)(C)c1cc(NC(=O)Nc2ccc(-c3cn4c(n3)sc3cc(OCCCN5CCOCC5)ccc34)cc2)no1

IC50 [1]: 0.88 nM
Compound: CC(C)(C)c1cc(NC(=O)Nc2ccc(-c3cn4c(n3)sc3cc(OCCN5CCCCC5)ccc34)cc2)no1

bioavailability (clinical [2]): 85.5%
half-life (clinical [3]): 19 h
IC50 [4]: 5.69 nM
IC50 [5]: 21.2 nM
Compound: COc1ccc(F)cc1C(=O)NCc1ccc(-c2nn([C@H](C)C(F)(F)F)c(N)c2C(N)=O)cc1

Cmax (clinical [6]): 1.5 ng/mL
half-life (clinical [3]): 9.6 h
Vd (clinical [7]): 189 L
Ki (Neuromedin-K receptor): 21.8 nM
Compound: Cc1nsc(-c2nnc3n2CCN(C(=O)c2ccc(F)cc2)[C@@H]3C)n1 [FEZOLINETANT]

fraction unbound [8]: 0.09
Vd [9]: 984 L
Cmax [10]: 479 ng/mL
Compound: N#CCNC(=O)c1ccc(-c2ccnc(Nc3ccc(N4CCOCC4)cc3)n2)cc1 [MOMELOTINIB]

bioavailability (clinical [2]): 19%
Cmax [11]: 508 ng/mL
AUC [12]: 3370 ng·h/mL
Compound: CCC[C@H](N[C@H]1CCc2cc(F)cc(F)c2C1)C(=O)Nc1cn(C(C)(C)CNCC(C)(C)C)cn1 [NIROGACESTAT]

inhibition at 10 µM (CYP3A4): 99%
Compound: CC1(C)CCC(C)(C)c2cc(Cn3cccn3)c(/C=C/c3ccc(C(=O)O)cc3)cc21 [PALOVAROTENE]

bioavailability (clinical [2]): 64%
Compound: C=CC(=O)N1C[C@H](Nc2ncnc3[nH]ccc23)CC[C@@H]1C [RITLECITINIB]

half-life (in vivo): 1.5 h
Compound: C[C@@]1(C(=O)N[C@@H](CCC(=O)O)C(=O)O)CCCN1C(=O)CN [TROFINETIDE] (H-Gly-[αMeP]-Glu-OH)
